Species on record: Rattus norvegicus
Experiment: DrugMatrix - Regimen: Daily Repeat
Type: toxicity, organism-based, Sprague-Dawley
Design: regimen Daily Repeat, gender Male, age 6-8 weeks
Conditions: in vivo, po, route oral GAVAGE, vehicle .5 % CMC; for ABSOLUTE BASOPHIL / ABSOLUTE EOSINOPHIL / ABSOLUTE LYMPHOCYTE / ABSOLUTE MONOCYTE / ABSOLUTE SEGMENTED NEUTROPHIL / BASOPHIL / EOSINOPHIL / ERYTHROCYTE COUNT / HEMATOCRIT / HEMOGLOBIN / LEUKOCYTE COUNT / LYMPHOCYTE / MEAN CORPUSCULAR HEMOGLOBIN / MEAN CORPUSCULAR HEMOGLOBIN CONCENTRATION / MEAN CORPUSCULAR VOLUME / MONOCYTE / NEUTROPHIL / NUCLEATED RED BLOOD CELLS / PLATELET COUNT: tissue Blood; for ALANINE AMINOTRANSFERASE / ALBUMIN / ALKALINE PHOSPHATASE / ASPARTATE AMINOTRANSFERASE / BLOOD UREA NITROGEN / CARBON DIOXIDE / CHLORIDE / CHOLESTEROL / CREATINE PHOSPHOKINASE / CREATININE / GLUCOSE / LACTATE DEHYDROGENASE / LIPASE / PHOSPHORUS / POTASSIUM / SODIUM / TOTAL BILIRUBIN / TOTAL PROTEIN / URIC ACID: tissue Plasma
[1] = 88 mg/kg, 72 h, dose level Low, time 3 day
[2] = 88 mg/kg, 120 h, dose level Low, time 5 day
[3] = 1500 mg/kg, 72 h, dose level High, time 3 day
[4] = 1500 mg/kg, 120 h, dose level High, time 5 day

## NC(=O)c1cnccn1 [PYRAZINAMIDE]
[1]
  ABSOLUTE BASOPHIL: 0 CELLS/uL
  ABSOLUTE EOSINOPHIL: 30.67 CELLS/uL
  ABSOLUTE LYMPHOCYTE: 12250.33 CELLS/uL
  ABSOLUTE MONOCYTE: 470.67 CELLS/uL
  ABSOLUTE SEGMENTED NEUTROPHIL: 1315 CELLS/uL
  BASOPHIL: 0%
  EOSINOPHIL: 0.33%
  ERYTHROCYTE COUNT: 5.55 x10E6/uL
  HEMATOCRIT: 35.93%
  HEMOGLOBIN: 13.4 G/DL
  LEUKOCYTE COUNT: 14.07 x10E3/uL
  LYMPHOCYTE: 87%
  MEAN CORPUSCULAR HEMOGLOBIN: 24.2 pg
  MEAN CORPUSCULAR HEMOGLOBIN CONCENTRATION: 37.27 G/DL
  MEAN CORPUSCULAR VOLUME: 64.83 fL
  MONOCYTE: 3%
  NEUTROPHIL: 9.67%
  NUCLEATED RED BLOOD CELLS: 0 /100WBC
  PLATELET COUNT: 1204.33 x10E3/uL
  ALANINE AMINOTRANSFERASE: 44.33 u/L
  ALBUMIN: 4.73 G/DL
  ALKALINE PHOSPHATASE: 375 u/L
  ASPARTATE AMINOTRANSFERASE: 85.33 u/L
  BLOOD UREA NITROGEN: 14.67 mg/dL
  CARBON DIOXIDE: 22.67 mmol/L
  CHLORIDE: 102.67 MEQ/L
  CHOLESTEROL: 74.33 mg/dL
  CREATINE PHOSPHOKINASE: 282.33 u/L
  CREATININE: 0.22 mg/dL
  GLUCOSE: 147 mg/dL
  LACTATE DEHYDROGENASE: 427 u/L
  LIPASE: 10 u/L
  PHOSPHORUS: 12.4 mg/dL
  POTASSIUM: 7.05 MEQ/L
  SODIUM: 145.67 MEQ/L
  TOTAL BILIRUBIN: 0.27 mg/dL
  TOTAL PROTEIN: 5.97 G/DL
  URIC ACID: 2.43 mg/dL
[2]
  ABSOLUTE BASOPHIL: 0 CELLS/uL
  ABSOLUTE EOSINOPHIL: 154 CELLS/uL
  ABSOLUTE LYMPHOCYTE: 11236 CELLS/uL
  ABSOLUTE MONOCYTE: 491 CELLS/uL
  ABSOLUTE SEGMENTED NEUTROPHIL: 1385.67 CELLS/uL
  BASOPHIL: 0%
  EOSINOPHIL: 1%
  ERYTHROCYTE COUNT: 5.75 x10E6/uL
  HEMATOCRIT: 35.9%
  HEMOGLOBIN: 13.43 G/DL
  LEUKOCYTE COUNT: 13.27 x10E3/uL
  LYMPHOCYTE: 85%
  MEAN CORPUSCULAR HEMOGLOBIN: 23.4 pg
  MEAN CORPUSCULAR HEMOGLOBIN CONCENTRATION: 37.47 G/DL
  MEAN CORPUSCULAR VOLUME: 62.43 fL
  MONOCYTE: 3.67%
  NEUTROPHIL: 10.33%
  NUCLEATED RED BLOOD CELLS: 0.33 /100WBC
  PLATELET COUNT: 1159.33 x10E3/uL
  ALANINE AMINOTRANSFERASE: 36 u/L
  ALBUMIN: 4.27 G/DL
  ALKALINE PHOSPHATASE: 325.33 u/L
  ASPARTATE AMINOTRANSFERASE: 95.33 u/L
  BLOOD UREA NITROGEN: 20 mg/dL
  CARBON DIOXIDE: 24 mmol/L
  CHLORIDE: 108.33 MEQ/L
  CHOLESTEROL: 66 mg/dL
  CREATINE PHOSPHOKINASE: 516 u/L
  CREATININE: 0.22 mg/dL
  GLUCOSE: 133.67 mg/dL
  LACTATE DEHYDROGENASE: 846.33 u/L
  LIPASE: 9 u/L
  PHOSPHORUS: 11.63 mg/dL
  POTASSIUM: 5.99 MEQ/L
  SODIUM: 145.83 MEQ/L
  TOTAL BILIRUBIN: 0.13 mg/dL
  TOTAL PROTEIN: 6.07 G/DL
  URIC ACID: 1.4 mg/dL
[3]
  ABSOLUTE BASOPHIL: 0 CELLS/uL
  ABSOLUTE EOSINOPHIL: 133 CELLS/uL
  ABSOLUTE LYMPHOCYTE: 8872.33 CELLS/uL
  ABSOLUTE MONOCYTE: 166.33 CELLS/uL
  ABSOLUTE SEGMENTED NEUTROPHIL: 1061.67 CELLS/uL
  BASOPHIL: 0%
  EOSINOPHIL: 1.33%
  ERYTHROCYTE COUNT: 5.4 x10E6/uL
  HEMATOCRIT: 35.87%
  HEMOGLOBIN: 13.37 G/DL
  LEUKOCYTE COUNT: 10.23 x10E3/uL
  LYMPHOCYTE: 86.67%
  MEAN CORPUSCULAR HEMOGLOBIN: 24.8 pg
  MEAN CORPUSCULAR HEMOGLOBIN CONCENTRATION: 37.33 G/DL
  MEAN CORPUSCULAR VOLUME: 66.4 fL
  MONOCYTE: 1.67%
  NEUTROPHIL: 10.33%
  NUCLEATED RED BLOOD CELLS: 0 /100WBC
  PLATELET COUNT: 1418.67 x10E3/uL
  ALANINE AMINOTRANSFERASE: 48.33 u/L
  ALBUMIN: 4.13 G/DL
  ALKALINE PHOSPHATASE: 315.67 u/L
  ASPARTATE AMINOTRANSFERASE: 85.67 u/L
  BLOOD UREA NITROGEN: 16.67 mg/dL
  CARBON DIOXIDE: 28 mmol/L
  CHLORIDE: 103.33 MEQ/L
  CHOLESTEROL: 73 mg/dL
  CREATINE PHOSPHOKINASE: 136.33 u/L
  CREATININE: 0.15 mg/dL
  GLUCOSE: 153 mg/dL
  LACTATE DEHYDROGENASE: 76 u/L
  LIPASE: 9 u/L
  PHOSPHORUS: 10.47 mg/dL
  POTASSIUM: 5.73 MEQ/L
  SODIUM: 146 MEQ/L
  TOTAL BILIRUBIN: 0.23 mg/dL
  TOTAL PROTEIN: 5.77 G/DL
  URIC ACID: 1.47 mg/dL
[4]
  ABSOLUTE BASOPHIL: 0 CELLS/uL
  ABSOLUTE EOSINOPHIL: 88 CELLS/uL
  ABSOLUTE LYMPHOCYTE: 11940 CELLS/uL
  ABSOLUTE MONOCYTE: 519 CELLS/uL
  ABSOLUTE SEGMENTED NEUTROPHIL: 1353 CELLS/uL
  BASOPHIL: 0%
  EOSINOPHIL: 0.67%
  ERYTHROCYTE COUNT: 6.59 x10E6/uL
  HEMATOCRIT: 40.1%
  HEMOGLOBIN: 14.83 G/DL
  LEUKOCYTE COUNT: 13.9 x10E3/uL
  LYMPHOCYTE: 86%
  MEAN CORPUSCULAR HEMOGLOBIN: 22.5 pg
  MEAN CORPUSCULAR HEMOGLOBIN CONCENTRATION: 37.03 G/DL
  MEAN CORPUSCULAR VOLUME: 60.83 fL
  MONOCYTE: 3.67%
  NEUTROPHIL: 9.67%
  NUCLEATED RED BLOOD CELLS: 0 /100WBC
  PLATELET COUNT: 1142.67 x10E3/uL
  ALANINE AMINOTRANSFERASE: 56.33 u/L
  ALBUMIN: 4.53 G/DL
  ALKALINE PHOSPHATASE: 308 u/L
  ASPARTATE AMINOTRANSFERASE: 93.33 u/L
  BLOOD UREA NITROGEN: 16.67 mg/dL
  CARBON DIOXIDE: 25.33 mmol/L
  CHLORIDE: 104.5 MEQ/L
  CHOLESTEROL: 70.67 mg/dL
  CREATINE PHOSPHOKINASE: 254.33 u/L
  CREATININE: 0.17 mg/dL
  GLUCOSE: 185.67 mg/dL
  LACTATE DEHYDROGENASE: 177.33 u/L
  LIPASE: 9 u/L
  PHOSPHORUS: 12.47 mg/dL
  POTASSIUM: 5.72 MEQ/L
  SODIUM: 147.8 MEQ/L
  TOTAL BILIRUBIN: 0.2 mg/dL
  TOTAL PROTEIN: 6.07 G/DL
  URIC ACID: 1.37 mg/dL
